# Test results published in PubChem BioAssay (NCI).
#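 The compound was tested at five concentrations on cells cultured in 96-well plates, with a 48-hour exposure period. TGI: concentration producing complete growth inhibition.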
# What was measured:
# Assay in all cases: NCI-60 cell line screen, 48 h
# SK-OV-3 ovarian = system: SK-OV-3 ovarian
# SK-MEL-5 melanoma = system: SK-MEL-5 melanoma
# HT29 colon = system: HT29 colon
# MDA-MB-231 breast = system: MDA-MB-231 breast
# LOX IMVI melanoma = system: LOX IMVI melanoma
# HL-60(TB) leukemia = system: HL-60(TB) leukemia
# OVCAR-4 ovarian = system: OVCAR-4 ovarian
# NCI-H460 lung = system: NCI-H460 lung
# HOP-62 NSCLC = system: HOP-62 NSCLC
# SR leukemia = system: SR leukemia
# KM12 colon = system: KM12 colon
# M14 melanoma = system: M14 melanoma
# TK-10 renal = system: TK-10 renal
# HCT-116 colon = system: HCT-116 colon
# HS 578T breast = system: HS 578T breast
# HCC-2998 colon = system: HCC-2998 colon
# IGROV1 ovarian = system: IGROV1 ovarian
# COLO 205 colon = system: COLO 205 colon
# SNB-75 CNS = system: SNB-75 CNS
# NCI-H23 lung = system: NCI-H23 lung
# SF-295 CNS = system: SF-295 CNS
# OVCAR-3 ovarian = system: OVCAR-3 ovarian
# BT-549 breast = system: BT-549 breast
# A498 renal = system: A498 renal
# MDA-N = system: MDA-N
# MCF7 breast = system: MCF7 breast
# DU-145 prostate = system: DU-145 prostate
# SN12C renal = system: SN12C renal
# CAKI-1 renal = system: CAKI-1 renal
# SK-MEL-28 melanoma = system: SK-MEL-28 melanoma
# U251 CNS = system: U251 CNS
# SNB-19 CNS = system: SNB-19 CNS
# OVCAR-8 ovarian = system: OVCAR-8 ovarian
# MOLT-4 leukemia = system: MOLT-4 leukemia
# MALME-3M melanoma = system: MALME-3M melanoma
# T-47D breast = system: T-47D breast
# 786-0 renal = system: 786-0 renal
# HCT-15 colon = system: HCT-15 colon
# SW-620 colon = system: SW-620 colon
# K-562 leukemia = system: K-562 leukemia
# NCI-H522 lung = system: NCI-H522 lung
# CCRF-CEM leukemia = system: CCRF-CEM leukemia
# RXF 393 renal = system: RXF 393 renal
# EKVX NSCLC = system: EKVX NSCLC
# OVCAR-5 ovarian = system: OVCAR-5 ovarian
# UACC-257 melanoma = system: UACC-257 melanoma
# MDA-MB-435 = system: MDA-MB-435
# UO-31 renal = system: UO-31 renal
# UACC-62 melanoma = system: UACC-62 melanoma
# SK-MEL-2 melanoma = system: SK-MEL-2 melanoma
# NCI/ADR-RES ovarian = system: NCI/ADR-RES ovarian
# SF-539 CNS = system: SF-539 CNS
# SF-268 CNS = system: SF-268 CNS
# PC-3 prostate = system: PC-3 prostate
# HOP-92 NSCLC = system: HOP-92 NSCLC
# A549 NSCLC = system: A549 NSCLC
# ACHN renal = system: ACHN renal
structure (smiles),measurement,setting,value
CN(C)c1ccc(/C=C2\N=C(c3ccccc3)N(/N=C3\C(=O)Nc4ccccc43)C2=O)cc1,TGI,SK-OV-3 ovarian,> 100 µM
same,TGI,SK-MEL-5 melanoma,> 100 µM
same,TGI,HT29 colon,> 100 µM
same,TGI,MDA-MB-231 breast,> 100 µM
same,TGI,LOX IMVI melanoma,> 100 µM
same,TGI,HL-60(TB) leukemia,> 100 µM
same,TGI,OVCAR-4 ovarian,> 100 µM
same,TGI,NCI-H460 lung,> 100 µM
same,TGI,HOP-62 NSCLC,> 100 µM
same,TGI,SR leukemia,> 100 µM
same,TGI,KM12 colon,> 100 µM
same,TGI,M14 melanoma,> 100 µM
same,TGI,TK-10 renal,> 100 µM
same,TGI,HCT-116 colon,> 100 µM
same,TGI,HS 578T breast,> 100 µM
same,TGI,HCC-2998 colon,> 100 µM
same,TGI,IGROV1 ovarian,> 100 µM
same,TGI,COLO 205 colon,81 µM
same,TGI,SNB-75 CNS,> 100 µM
same,TGI,NCI-H23 lung,> 100 µM
same,TGI,SF-295 CNS,> 100 µM
same,TGI,OVCAR-3 ovarian,65.5 µM
same,TGI,BT-549 breast,> 100 µM
same,TGI,A498 renal,> 100 µM
same,TGI,MDA-N,> 100 µM
same,TGI,MCF7 breast,> 100 µM
same,TGI,DU-145 prostate,> 100 µM
same,TGI,SN12C renal,> 100 µM
same,TGI,CAKI-1 renal,> 100 µM
same,TGI,SK-MEL-28 melanoma,> 100 µM
same,TGI,U251 CNS,> 100 µM
same,TGI,SNB-19 CNS,> 100 µM
same,TGI,OVCAR-8 ovarian,> 100 µM
same,TGI,MOLT-4 leukemia,> 100 µM
same,TGI,MALME-3M melanoma,> 100 µM
same,TGI,T-47D breast,> 100 µM
same,TGI,786-0 renal,> 100 µM
same,TGI,HCT-15 colon,> 100 µM
same,TGI,SW-620 colon,> 100 µM
same,TGI,K-562 leukemia,> 100 µM
same,TGI,NCI-H522 lung,> 100 µM
same,TGI,CCRF-CEM leukemia,> 100 µM
same,TGI,RXF 393 renal,> 100 µM
same,TGI,EKVX NSCLC,> 100 µM
same,TGI,OVCAR-5 ovarian,> 100 µM
same,TGI,UACC-257 melanoma,> 100 µM
same,TGI,MDA-MB-435,45.4 µM
same,TGI,UO-31 renal,> 100 µM
same,TGI,UACC-62 melanoma,> 100 µM
same,TGI,SK-MEL-2 melanoma,> 100 µM
same,TGI,NCI/ADR-RES ovarian,> 100 µM
same,TGI,SF-539 CNS,> 100 µM
same,TGI,SF-268 CNS,> 100 µM
same,TGI,PC-3 prostate,> 100 µM
same,TGI,HOP-92 NSCLC,> 100 µM
same,TGI,A549 NSCLC,> 100 µM
same,TGI,ACHN renal,> 100 µM
